Laboratory results: the NIST ThermoML archive (doi:10.1016/j.fluid.2018.08.016)
± gives the expanded uncertainty stated by the source.

Key:
[1] = for thermal conductivity: 101.33 kPa, Modified transient plane source method; for Normal melting temperature: Crystal 1, DTA; for Triple point temperature: DSC
[2] = Molar enthalpy of transition or fusion; details: DSC

CCCCCCCCCCCCCCCCCCCCCCCC [tetracosane]
[1]
Details | thermal conductivity [W/m/K]
297.6 K, Crystal 2 | 0.594 ± 0.036
302.3 K, Crystal 2 | 0.545 ± 0.033
307.7 K, Crystal 2 | 0.545 ± 0.033
312.9 K, Crystal 2 | 0.603 ± 0.036
323.1 K, Liquid | 0.152 ± 0.005
328 K, Liquid | 0.151 ± 0.005
333 K, Liquid | 0.149 ± 0.005
337.6 K, Liquid | 0.148 ± 0.005
343.1 K, Liquid | 0.146 ± 0.005
348 K, Liquid | 0.146 ± 0.005
353 K, Liquid | 0.145 ± 0.006

Details | Normal melting temperature [°C]
[1] | 50.0 ± 0.5

Details | Molar enthalpy of transition or fusion, [2] [kcal/mol] | Triple point temperature, [1] [K]
Crystal 1 | 12.2 ± 1.27 | –
Crystal 2 | 7.41 ± 0.43 | 320.8 ± 0.8

CCCCCCCCCCCCCCCCCCCCCCCCCCCCCCCC [dotriacontane]
[1]
Details | thermal conductivity [W/m/K]
297.7 K, Crystal 2 | 0.574 ± 0.034
302.3 K, Crystal 2 | 0.574 ± 0.036
307.5 K, Crystal 2 | 0.585 ± 0.036
312.8 K, Crystal 2 | 0.607 ± 0.038
318 K, Crystal 2 | 0.585 ± 0.037
323.1 K, Crystal 2 | 0.561 ± 0.035
328 K, Crystal 2 | 0.588 ± 0.036
332.6 K, Crystal 2 | 0.621 ± 0.038
343 K, Liquid | 0.153 ± 0.006
348 K, Liquid | 0.152 ± 0.006
353.1 K, Liquid | 0.149 ± 0.005

Details | Normal melting temperature [°C]
[1] | 69 ± 0.5

Details | Molar enthalpy of transition or fusion, [2] [kcal/mol] | Triple point temperature, [1] [K]
Crystal 1 | 18 ± 0.693 | –
Crystal 2 | 9.3 ± 0.359 | 338.1 ± 0.8

CCCCCCCCCCCCCCCCCCCCCCCCCCCC [octacosane]
thermal conductivity [W/m/K], [1]
Details | 297.7 K | 302.4 K | 308 K | 312.7 K | 318.6 K | 323.4 K | 337.7 K | 343.1 K | 348 K | 353 K
Crystal 2 | 0.514 ± 0.031 | 0.489 ± 0.03 | 0.471 ± 0.029 | 0.469 ± 0.028 | 0.473 ± 0.031 | 0.505 ± 0.032 | – | – | – | –
Liquid | – | – | – | – | – | – | 0.152 ± 0.005 | 0.151 ± 0.005 | 0.149 ± 0.005 | 0.149 ± 0.005

Details | Normal melting temperature [°C]
[1] | 60.2 ± 1

Details | Molar enthalpy of transition or fusion, [2] [kcal/mol] | Triple point temperature, [1] [K]
Crystal 1 | 15.1 ± 0.55 | –
Crystal 2 | 8.39 ± 0.311 | 330.4 ± 0.8

CCCCCCCCCCCCCCCCCCCCCCCCCC [hexacosane]
thermal conductivity [W/m/K], [1]
Details | 297.6 K | 302.4 K | 307.8 K | 312.7 K | 318.5 K | 333 K | 337.8 K | 343.1 K | 348 K | 353.1 K
Crystal 2 | 0.499 ± 0.031 | 0.524 ± 0.031 | 0.484 ± 0.032 | 0.513 ± 0.032 | 0.574 ± 0.036 | – | – | – | – | –
Liquid | – | – | – | – | – | 0.151 ± 0.005 | 0.15 ± 0.005 | 0.149 ± 0.006 | 0.148 ± 0.005 | 0.147 ± 0.005

Details | Normal melting temperature [°C]
[1] | 55.7 ± 0.5

Details | Molar enthalpy of transition or fusion, [2] [kcal/mol] | Triple point temperature, [1] [K]
Crystal 1 | 13.2 ± 0.837 | –
Crystal 2 | 7.37 ± 0.287 | 325.7 ± 0.8

CCCCCCCCCCCCCCCCCCCCCC [docosane]
[1]
Details | thermal conductivity [W/m/K]
297.6 K, Crystal 2 | 0.624 ± 0.039
302.4 K, Crystal 2 | 0.668 ± 0.041
307.9 K, Crystal 2 | 0.637 ± 0.04
318.1 K, Liquid | 0.151 ± 0.005
323 K, Liquid | 0.15 ± 0.005
328.1 K, Liquid | 0.148 ± 0.005
333 K, Liquid | 0.146 ± 0.005
337.7 K, Liquid | 0.145 ± 0.005
343 K, Liquid | 0.144 ± 0.005
347.9 K, Liquid | 0.143 ± 0.005
353 K, Liquid | 0.142 ± 0.005

Details | Normal melting temperature [°C]
[1] | 43.5 ± 0.5

Details | Molar enthalpy of transition or fusion, [2] [kcal/mol] | Triple point temperature, [1] [K]
Crystal 1 | 9.92 ± 0.359 | –
Crystal 2 | 6.92 ± 0.263 | 315.6 ± 0.8

CCCCCCCCCCCC [dodecane]
[1], Liquid
Details | thermal conductivity [W/m/K]
318.2 K | 0.135 ± 0.004
323.2 K | 0.134 ± 0.005
328.1 K | 0.133 ± 0.005
333.1 K | 0.131 ± 0.005
337.7 K | 0.13 ± 0.005
343.2 K | 0.128 ± 0.005
347.9 K | 0.127 ± 0.005
352.8 K | 0.127 ± 0.005

CCCCCCCCCCCCCCCCCCCCCCCCCCCCCC [triacontane]
thermal conductivity [W/m/K], [1]
Details | 297.7 K | 302.3 K | 307.8 K | 312.6 K | 318.5 K | 323.3 K | 328 K | 343.1 K | 348 K | 353.5 K
Crystal 2 | 0.616 ± 0.038 | 0.603 ± 0.036 | 0.556 ± 0.034 | 0.612 ± 0.037 | 0.559 ± 0.035 | 0.514 ± 0.033 | 0.536 ± 0.034 | – | – | –
Liquid | – | – | – | – | – | – | – | 0.153 ± 0.005 | 0.152 ± 0.005 | 0.151 ± 0.005

Details | Normal melting temperature [°C]
[1] | 64.0 ± 1.5

Details | Molar enthalpy of transition or fusion, [2] [kcal/mol] | Triple point temperature, [1] [K]
Crystal 1 | 16.7 ± 0.598 | –
Crystal 2 | 9.03 ± 0.335 | 334.2 ± 0.8
